Reference: US20260008783A1, “MODULATORS OF FSHR AND USES THEREOF” (Celmatix Inc., priority 2022, published 2026)

Target: T1, Follicle Stimulating Hormone Receptor (FSHR) (Homo sapiens, UniProt P23945)
T1 construct: HA (N); expressed in transfected cells; host or cells: CHO-K1, transient transfection, pHM6 vector (CMV promoter)
T1 sequence (P23945 18-695): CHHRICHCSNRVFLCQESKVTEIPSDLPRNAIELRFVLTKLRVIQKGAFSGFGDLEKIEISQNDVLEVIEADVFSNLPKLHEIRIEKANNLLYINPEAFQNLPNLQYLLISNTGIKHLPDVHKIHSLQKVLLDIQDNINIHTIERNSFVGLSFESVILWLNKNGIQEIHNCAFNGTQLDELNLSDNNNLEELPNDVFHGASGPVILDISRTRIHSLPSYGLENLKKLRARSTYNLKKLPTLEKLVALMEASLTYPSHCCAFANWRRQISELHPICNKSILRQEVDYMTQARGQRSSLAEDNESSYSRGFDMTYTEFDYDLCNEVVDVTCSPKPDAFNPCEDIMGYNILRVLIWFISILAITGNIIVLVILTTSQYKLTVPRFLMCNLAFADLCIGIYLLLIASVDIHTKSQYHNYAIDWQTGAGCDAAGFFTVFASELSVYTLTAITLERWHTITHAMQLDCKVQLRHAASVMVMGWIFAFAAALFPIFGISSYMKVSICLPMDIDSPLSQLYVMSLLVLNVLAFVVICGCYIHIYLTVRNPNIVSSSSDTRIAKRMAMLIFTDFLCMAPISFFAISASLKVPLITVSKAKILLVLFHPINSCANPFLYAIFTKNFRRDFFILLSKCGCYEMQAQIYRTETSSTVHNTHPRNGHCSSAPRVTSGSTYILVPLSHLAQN
Assay: HTRF cAMP agonist assay, FSHR, transiently transfected CHO-K1 cells
Assay type: cell-based
Details: CHO-K1 cells transiently expressing human FSHR, read-out: IC50 FSHR LANCE CAMP
Excerpt: Example 17. HTRF cAMP Agonist Assay Protocol (for FSHR, TSHR, LHCGR)
Mammalian expression vectors designed to express either Follicle Stimulating Hormone Receptor (FSHR), Thyroid Stimulating Hormone Receptor (TSHR), or Luteinizing Hormone/Choriogonadotropin Receptor (LHCGR), were generated with an HA-tag on the N-terminus. All constructs were expressed under a human cytomegalovirus (CMV) immediate early enhancer and promoter using the pHM6 expression vector. The protein coding region was confirmed by sequence analysis to be in-frame and of the expected sequence, matching the following accession numbers: FSHR NM_000145, TSHR NM_000369, and LHCGR NM_000233.
HTRF cAMP assays were performed using Chinese Hamster Ovary (CHO-K1) cell lines transiently expressing human FSH, TSH, and LHCG receptors. 48 hours before the assay, cells were washed with PBS and then dissociated from tissue culture flasks with 0.25% trypsin. Dissociated cells were quenched in full media (F-12K Medium Corning REF #10-025-CV, 10% Avantor Seradigm FB Essence Cat #10803-034, 1% Penicillin/Streptomycin Cytiva HyClone Cat #SV30010) and then collected by centrifugation at 290×g for 5 min. Cells were resuspended in full media and dispensed into 150 mm cell culture dishes (Nest Scientific Cat #715001), at 2.3×10^6 cells/flask. 7 hours later, cells were transfected using Lipofectamine transfection reagent (Invitrogen Cat #18324020). Briefly, 60 μL of lipofectamine was dispensed into 2 mL of Opti-MEM (Gibco Cat #31985070) and incubated for 5 minutes at room temperature. Then, the mixture was added onto […] of DNA and incubated for another 20 minutes at room temperature. Cells were washed with warm (37° C.) PBS. 17.5 mL of Opti-MEM was dispensed onto the cells, followed by addition of the Opti-MEM/lipofectamine/DNA mixture. Cells were incubated overnight in a 37° C., 5% CO2 cell incubator. 17-19 hours later, Opti-MEM was aspirated off the cells and replaced with full media. Cells were incubated for another 24 hours in a 37° C., 5% CO2 cell incubator.
On the day of the assay, cells were washed with PBS and then dissociated from tissue culture flasks with 0.25% trypsin. Dissociated cells were quenched in full media and then collected by centrifugation at 290×g for 5 min. Cells were resuspended in PBS^+/+ (Corning REF #20-030-CV) to a concentration of 2×10^5 cells/mL. 10 μL/well of cells (2,000 cells/well) were dispensed into 384-well Corning plates (REF #3825), in triplicate. Cells were incubated at room temperature for 2 hours.
Example FSHR Modulator compounds were diluted in assay buffer (PBS^+/+, 0.05% BSA Sigma-Aldrich A3059, 500 μM IBMX Sigma-Aldrich 15879) to 3.5× the final assay concentration. 4 μL of test agonist was added to the cells and incubated for 1 hour at room temperature. 10 μL of cAMP detection reagents (LANCE Ultra cAMP Detection Kit PerkinElmer TRF0264) were dispensed onto the cells and plates were incubated for 2 hours at room temperature (cAMP detection reagents were made according to the PerkinElmer kit protocol). Plates were read on an Envision plate reader following PerkinElmer guidelines.
Raw data for all assays was transmitted directly from plate readers into a database for processing. All assay plates contained both positive and negative control wells to allow for data normalization and scaling. In agonist assays, negative control wells contained assay buffer and positive control wells contained […] positive control (10 nM Follicle Stimulating Hormone Sigma-Aldrich F4021, 50 nM Thyroid Stimulating Hormone Sigma-Aldrich 869006, 50 nM Luteinizing Hormone MyBioSource MBS5308806, for their respective receptors). All control wells contained DMSO at a final assay concentration that matched the test compound wells. […]
Percent control data were analyzed by non-linear regression with a sigmoidal dose response algorithm in the database to yield potency and efficacy data.

Row | SMILES | IC50 [nM]
1 | COc1cc2c(cc1-c1cncc(C(N)=O)c1)-c1c(c(C(=O)N3CCOCC3(C)C)nn1-c1cc(Cl)cc(Cl)c1)[S+]([O-])C2 (stereo not shown) [Compound 3-05] | 55.7
2 | COc1cc2oc3c(C(=O)N4CCOCC4(C)C)nn(-c4ccsc4)c3c2cc1-c1ccn(C)n1 [Compound 4-07, (3,3-dimethylmorpholin-4-yl)-[6-methoxy-7-(1-methylpyrazol-3-yl)-1-(3-thienyl)benzofuro[3,2-c]pyrazol-3-yl]methanone] | 2810
3 | COc1cc2c(cc1-c1cncc(C(N)=O)c1)-c1c(c(C(=O)N(C)C(C)(C)C)nn1-c1cc(Cl)cc(Cl)c1)CC2 [Compound 6-02, N-tert-butyl-8-(5-carbamoyl-3-pyridyl)-1-(3,5-dichlorophenyl)-7-methoxy-N-methyl-4,5-dihydrobenzo[g]indazole-3-carboxamide] | 8.53
4 | COc1cc2c(cc1-c1ccn(C)n1)-c1c(c(C(=O)N(C)C(C)(C)C)nn1-c1ccsc1)OC2 [Compound 2-08] | 475
5 | COc1cc2c(cc1-c1cncc(C(N)=O)c1)-c1c(c(C(=O)N3CCN(CCC(=O)O)CC3(C)C)nn1-c1cc(Cl)cc(Cl)c1)CC2 [Compound 8-65] | 1320
6 | COc1cc2c(cc1-c1cncc(C(N)=O)c1)-c1c(c(C(=O)N3[C@@H]4CC[C@H]3CN(C)C4)nn1-c1cc(Cl)cc(Cl)c1)CC2 [Compound 8-18] | 18
7 | COc1cc2c(cc1-c1cncc(C(N)=O)c1)-c1c(c(C(=O)N3CCN(CCO)C(=O)C3(C)C)nn1-c1cc(Cl)cc(Cl)c1)CC2 [Compound 8-70] | 140
8 | CC1(C)C(=O)NCCN1C(=O)c1nn(-c2ccccn2)c2c1CCc1ccc(-c3cncc(C(N)=O)c3)cc1-2 [Compound 8-75] | 27400
9 | COc1cc2c(cc1-c1cncc(C(N)=O)c1)-c1c(c(C(=O)N3CCNC(=O)C3)nn1-c1cc(Cl)cc(Cl)c1)CC2 [Compound 8-82] | 79.8
10 | COc1cc2c(cc1-c1cncc(C(N)=O)c1)-c1c(c(C(=O)N3CCCC3(C)C)nn1-c1cc(Cl)cc(Cl)c1)CC2 [Compound 8-14] | 3.47
11 | CCC1C(=O)NCCN1C(=O)c1nn(-c2ccccn2)c2c1CCc1ccc(-c3cccnc3)cc1-2 (stereo not shown) [Compound 8-78] | 2430
12 | COc1cc2c(cc1-c1cncc(C(N)=O)c1)-c1c(c(C(=O)N(C)C)nn1-c1cc(Cl)cc(Cl)c1)CC2 [Compound 9-05] | 45.2
13 | COc1cc2c(cc1-c1ccn(C)n1)-c1c(c(C(=O)N3CCOCC3(C)C)nn1-c1ccsc1)C2 [Compound 5-07, (3,3-dimethylmorpholin-4-yl)-[6-methoxy-7-(1-methylpyrazol-3-yl)-1-(3-thienyl)-4H-indeno[1,2-c]pyrazol-3-yl]methanone] | 115
14 | COc1cc2c(cc1-c1cccnc1)-c1c(c(C(=O)N3CCOCC3(C)C)nn1-c1cc(Cl)cc(Cl)c1)CC2 [Compound 9-07] | 5.98
15 | COc1cc2c(cc1-c1cncc(C(N)=O)c1)-c1c(c(C(=O)N3CCOCC3(C)C)nn1-c1ccsc1)C2 [Compound 5-03, 5-[3-(3,3-dimethylmorpholine-4-carbonyl)-6-methoxy-1-(3-thienyl)-4H-indeno[1,2-c]pyrazol-7-yl]pyridine-3-carboxamide] | 4.64
16 | COc1cc2c(cc1-c1cncc(C(N)=O)c1)-c1c(c(C(=O)N3CCOC[C@@H]3C)nn1-c1cc(Cl)cc(Cl)c1)CC2 [Compound 8-43] | 2.59
17 | CCN(C)C(=O)c1nn(-c2cc(Cl)cc(Cl)c2)c2c1CCc1cc(OC)c(-c3cncc(C(N)=O)c3)cc1-2 [Compound 8-34] | 13.4
18 | COc1cc2c(cc1-c1cncc(C(N)=O)c1)-c1c(c(C(=O)N3[C@H](C)CNC[C@@H]3C)nn1-c1cc(Cl)cc(Cl)c1)CC2 [Compound 8-21] | 5.38
19 | CC[C@H]1COCCN1C(=O)c1nn(-c2cc(Cl)cc(Cl)c2)c2c1CCc1cc(OC)c(-c3cncc(C(N)=O)c3)cc1-2 [Compound 8-44] | 2.04
20 | COc1cc2c(cc1-c1cncc(C(N)=O)c1)-c1c(c(C(=O)N3CC4CCC3CN4C)nn1-c1cc(Cl)cc(Cl)c1)CC2 (stereo not shown) [Compound 8-17] | 115
21 | COc1cc(Cl)cc(-n2nc(C(=O)N3CCOCC3(C)C)c3c2-c2cc(-c4cncc(C(N)=O)c4)c(OC)cc2CC3)c1 [Compound 9-20] | 3.85

Further lines, results first:

Row | IC50 [nM] | SMILES
22 | 5.06 | COc1cc2c(cc1-c1cncc(C(N)=O)c1)-c1c(c(C(=O)N3CCOCC3(C)C)nn1-c1ccccn1)CC2 [Compound 10-01, 5-[3-(3,3-dimethylmorpholine-4-carbonyl)-7-methoxy-1-(2-pyridyl)-4,5-dihydrobenzo[g]indazol-8-yl]pyridine-3-carboxamide]
23 | 21.1 | COc1cc2c(cc1-c1ccc(=N)[nH]c1)-c1c(c(C(=O)N3CCOCC3(C)C)nn1-c1cc(F)cc(F)c1)CC2 [Compound 15-10]
24 | 31.1 | COc1cc2c(cc1-c1cccnc1)-c1c(c(C(=O)N3CCNC(=O)C3(C)C)nn1-c1cc(Cl)cc(Cl)c1)CC2 [Compound 15-03, 4-[1-(3,5-dichlorophenyl)-7-methoxy-8-(3-pyridyl)-4,5-dihydrobenzo[g]indazole-3-carbonyl]-3,3-dimethyl-piperazin-2-one]
25 | 5.07 | COc1cc2c(cc1-c1cncc(C(N)=O)c1)-c1c(c(C(=O)N3[C@H](C)CNC[C@@H]3C)nn1-c1cc(Cl)cc(Cl)c1)OC2 [Compound 12-02, 5-[1-(3,5-dichlorophenyl)-3-[(2R,6S)-2,6-dimethylpiperazine-1-carbonyl]-7-methoxy-5H-isochromeno[4,3-c]pyrazol-8-yl]pyridine-3-carboxamide]
26 | 363 | COc1cc2c(cc1-c1cncc(C(N)=O)c1)-c1c(c(C(=O)N3CCNC(=O)C3(C)C)nn1-c1ccncn1)CC2 [Compound 15-05, 5-(3-(2,2-dimethyl-3-oxopiperazine-1-carbonyl)-7-methoxy-1-(pyrimidin-4-yl)-4,5-dihydro-1H-benzo[g]indazol-8-yl)nicotinamide]
27 | 13800 | COc1cc2c(cc1-c1cncc(C(N)=O)c1)-c1c(c(C(=O)N3CCNC(=O)C3(C)C)nn1CC(C)C)CC2 [Compound 14-03]
28 | 2130 | COc1cc2c(cc1-c1cncc(C(N)=O)c1)-c1c(c(C(=O)N3CCNC(=O)C3(C)C)nn1CC(C)C)CC2 [Compound 13-09, 5-[3-(2,2-dimethyl-3-oxo-piperazine-1-carbonyl)-1-isobutyl-7-methoxy-4,5-dihydrobenzo[g]indazol-8-yl]pyridine-3-carboxamide]
